From patent publication US20030144360A1, “Composition and method for modulating BAR/FXR receptor activity” (Allergan Sales, Inc., priority 2001, published 2003)
Where “and” joins values, the source holds several entries; their conditions need not be identical. Identical values can stand only once.

How the values were obtained:
BAR:RXR heterodimers = molecular target: T1, BAR:RXR heterodimers (UniProt P19793+Q62735); assay: Co-activator (GRIP1) gel shift displacement assay, BAR:RXR heterodimer; type: binding
T1 construct: nucleic acid regions encoding the following full-length proteins were cloned into a CMV expression vector; made in house; host or cells: receptors: in vitro translation; GST-GRIP1: E. coli
T1 sequence (Q62735 1-469): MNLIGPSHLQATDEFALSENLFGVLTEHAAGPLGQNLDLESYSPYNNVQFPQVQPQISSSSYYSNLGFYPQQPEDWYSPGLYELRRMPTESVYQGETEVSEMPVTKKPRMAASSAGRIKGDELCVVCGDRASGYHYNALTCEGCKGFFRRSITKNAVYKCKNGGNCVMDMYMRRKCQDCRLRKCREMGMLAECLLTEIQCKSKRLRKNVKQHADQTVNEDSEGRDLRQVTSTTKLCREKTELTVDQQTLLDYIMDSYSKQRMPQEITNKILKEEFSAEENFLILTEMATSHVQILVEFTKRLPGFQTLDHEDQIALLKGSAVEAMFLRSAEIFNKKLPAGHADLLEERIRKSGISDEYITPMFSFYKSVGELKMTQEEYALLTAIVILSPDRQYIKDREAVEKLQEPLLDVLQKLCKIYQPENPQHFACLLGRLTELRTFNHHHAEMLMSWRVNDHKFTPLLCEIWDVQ
T1 sequence (P19793 1-462): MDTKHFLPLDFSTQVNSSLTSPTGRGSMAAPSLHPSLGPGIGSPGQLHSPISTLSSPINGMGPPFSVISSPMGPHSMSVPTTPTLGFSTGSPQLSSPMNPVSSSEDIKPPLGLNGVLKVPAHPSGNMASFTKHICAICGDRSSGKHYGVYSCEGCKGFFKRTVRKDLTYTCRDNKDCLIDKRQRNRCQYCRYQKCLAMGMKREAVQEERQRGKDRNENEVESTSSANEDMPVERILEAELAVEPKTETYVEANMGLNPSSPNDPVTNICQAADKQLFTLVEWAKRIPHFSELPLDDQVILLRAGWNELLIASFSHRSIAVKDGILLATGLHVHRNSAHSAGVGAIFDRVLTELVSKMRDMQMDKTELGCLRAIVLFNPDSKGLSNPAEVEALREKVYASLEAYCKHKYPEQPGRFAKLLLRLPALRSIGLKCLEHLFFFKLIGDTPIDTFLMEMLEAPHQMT
Description: Coactivators, which bind agonist-activated nuclear receptors including, without limitation, RAR and RXR, function to assist the activated nuclear receptor exert its activity as a transcription factor. Characterized co-activators include CBP, p300, RIP140, SRC-1, ACTR, TIF2 (also called GRIP 1) and TIFI. In most cases coactivator will not bind the receptor in the absence of an agonist, moreover, receptor antagonists will often block coactivator binding, either directly or through the recruitment of a corepressor. Coactivator recruitment assays are therefore a valuable method for directly visualizing associative changes to a receptor caused by the addition of a prospective ligand.
GRIP 1 was expressed as a fusion protein with glutathione-S-transferase, an enzyme which selectively binds glutathione and can thus be used as an affinity reagent. See e.g., U.S. Pat. No. 5,654,176. The GST-GRIP1 fusion protein was expressed in E. coli and purified on glutathione-Sepharose columns. In vitro translated BAR/FXR\RXR (0.6-1.2 μl each) and GST-GRIP 1 (5 μg) were incubated for 30 min at room temperature with 100,000 cpm of the E. coli DNA polymerase Klenow fragment-labeled probes in 10 mM Tris (pH 8.0), 50 mM KCl, 6% glycerol, 0.05% NP-40, 1 mM DTT, 12.5 ng/μl poly dI-dC, and the indicated ligands. Complexes were electrophoresed through 5% polyacrylamide gel in […] (45 mM Tris-base, 45 mM boric acid, 1 mM EDTA) at room temperature. Oligonucleotide probes were made to identify specific receptor dimers; an optimized DR-1 (direct repeat 1; a nucleotide sequence motif to which RXR will bind) probe (5′-[…]) (SEQ ID NO: 12) was used for RXR homodimers and the IR-1 sequence of the IBABP promoter, to which the BAR/RXR heterodimer binds, was used for BAR/RXR heterodimers.
We next tested the ability of AGN34 to displace the GRIP-1 co-activator from BAR. […] Competition experiments using the BAR/RXRm heterodimer binds yielded the same results as obtained using the BAR/RXR heterodimer. (FIG. 4D).

RFXRop / HRXRop = molecular target: T2, RFXRop / HRXRop (UniProt P19793+Q62735); assay: Co-transfection luciferase assay, EcRE × 6 reporter, RFXRop + HRXRop;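 also: CV-1 monkey cells transiently transfected with receptor expression vectors, reporter construct and β-galactosidase internal control, exposed to compound about 40 h, then luciferase chemiluminescence read by luminometer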
T2 sequence (Q62735 1-469): T1 sequence (Q62735 1-469)
T2 sequence (P19793 1-462): T1 sequence (P19793 1-462)
Description: CV-1 African Green Monkey cells were grown in Dulbecco's Modified Eagle's medium supplemented with 10% resin-charcoal stripped fetal bovine serum (FBS), 50 U/ml penicillin G and 50 μg/ml streptomycin sulfate (DMEM-FBS) at 37° C. in 5% CO2. One day prior to transfection, cells were plated to 50-80% confluence using phenol red-free DMEM-FBS. Cells were transiently transfected by lipofection as described in Forman et al., 81 Cell 687 (1995). Liposomes (N-[1-(2,3-dioleoyloxy)propyl]-N,N,N-ammonium methyl sulfate, sold by Boehringer Mannheim under the name DOTAP) were formed according to the manufacturer's instructions. The liposomes contained reporter gene constructs (300 ng/10^5 cells); cytomegalovirus driven expression vectors (25 ng/10^5 cells) were added as indicated along with CMX-Bgal (500 ng/10^5 cells) as an internal control. After 2 hours the liposomes were removed and replaced with fresh media. Cells were incubated for approximately 40 hours with phenol red-free DMEM-FBS containing the indicated compounds. After exposure to the specified ligand, the cells were harvested.
The harvested cells were assayed for the presence of luciferase activity. Cells were lysed in 0.1 M KPO4 (pH 7.8), 1.0% TRITON® X-100, 1.0 mM dithiolthreitol (DTT) and 2 mM ethylenediamine tetracetic acid (EDTA). Luciferase activity was measured by reaction of the cell lysates with luciferin in a reaction buffer comprising: 20 mM tricine, 1.07 mM Mg(CO3)4-Mg(OH)2-5H2O, 2.67 mM MgSO4.7H2O, 0.1 mM EDTA, 0.5 mM Sodium luciferin, 0.15 mg/ml Coenzyme A, 5 mM DTT, and 0.5 mM adenosine triphosphate (ATP). Resulting chemiluminescence was measured in a luminometer. […] All points were assayed in triplicate and varied by less than 15%. Each experiment was repeated three or more times with similar results.
As shown below, in most cases hRXRop was recombinantly coexpressed with one other of the indicated receptor constructs, so as to permit the formation of hetero-or homodimers containing hRXRop.
Expression of the luciferase reporter gene product was detected and quantified as described above.

Gal-L-RXR = molecular target: T3, Gal-L-RXR (Homo sapiens, UniProt P19793); assay: Gal-L-RXR fusion with Gal 4 reporter (MH100×4) in CV-1 cells; type: cell-based; conditions: 5 μM
T3 construct: expressed in transfected cells; host or cells: CV-1
T3 sequence (P19793 203-462): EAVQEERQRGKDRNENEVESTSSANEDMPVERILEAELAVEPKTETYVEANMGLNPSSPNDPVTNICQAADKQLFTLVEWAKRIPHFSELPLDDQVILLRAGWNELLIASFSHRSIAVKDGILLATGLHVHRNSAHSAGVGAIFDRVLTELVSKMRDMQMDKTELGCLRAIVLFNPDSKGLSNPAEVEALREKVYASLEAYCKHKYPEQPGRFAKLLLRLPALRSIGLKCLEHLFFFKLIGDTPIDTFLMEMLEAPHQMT
Description: The nucleic acid regions encoding the following full-length proteins were cloned into a CMV expression vector.
For GAL-L-RXR, the plasmid nucleic acids encoded amino acids Glu203 to Thr462 of human RXRα (SEQ ID NO: 4) fused to the GAL4 sequences. The junction between the carboxyl terminal section of GAL4 and the amino terminal portion of the RXR LBD had the following structure:
CV-1 African Green Monkey cells were grown in Dulbecco's Modified Eagle's medium supplemented with 10% resin-charcoal stripped fetal bovine serum (FBS), 50 U/ml penicillin G and 50 μg/ml streptomycin sulfate (DMEM-FBS) at 37° C. in 5% CO2. […]
(§1) The harvested cells were assayed for the presence of luciferase activity. […] Luciferase activity was measured by reaction of the cell lysates with luciferin in a reaction buffer comprising: 20 mM tricine, 1.07 mM Mg(CO3)4-Mg(OH)2-5H2O, 2.67 mM MgSO4.7H2O, 0.1 mM EDTA, 0.5 mM Sodium luciferin, 0.15 mg/ml Coenzyme A, 5 mM DTT, and 0.5 mM adenosine triphosphate (ATP). Resulting chemiluminescence was measured in a luminometer. […]
(§2) The transfected cells were then treated with the indicated ligands for 40 hours. Activity was measured using luciferase expression in the cotransfection assay described above. […] Thus, Gal-L-RAR or Gal-L-RXR fusions were transfected into CV-1 cells with a Gal 4 reporter (MH100×4) and the effect of different ligands was evaluated.

[1] = tested on: AR, mPXR, hPXR, ERα, CARβ, LXRα, PPARα, PPARβ, PPARδ, VDR and TRβ; assay: Activation of other RXR heterodimers / nuclear receptors (transfection assay); type: cell-based
Description: CV-1 African Green Monkey cells were grown in Dulbecco's Modified Eagle's medium supplemented with 10% resin-charcoal stripped fetal bovine serum (FBS), 50 U/ml penicillin G and 50 μg/ml streptomycin sulfate (DMEM-FBS) at 37° C. in 5% CO2. One day prior to transfection, cells were plated to 50-80% confluence using phenol red-free DMEM-FBS. Cells were transiently transfected by lipofection as described in Forman et al., 81 Cell 687 (1995). Liposomes (N-[1-(2,3-dioleoyloxy)propyl]-N,N,N-ammonium methyl sulfate, sold by Boehringer Mannheim under the name DOTAP) were formed according to the manufacturer's instructions. […]
as §1, §2

SMILES: CCCCCCOc1c(\C(C)=C/C=C/C(C)=C/C(=O)O)cc(C(C)C)cc1C(C)C [AGN 34, (2E, 4E, 6Z)-7-(2-Hexyloxy-3,5-diisopropylphenyl)-3-methylocta-2,4,6-trienoic Acid]
- doses for full displacement of co-activator, LG 268 versus RXR:BAR-CDCA complexes (BAR:RXR heterodimers): Much lower doses
- dissociation of BAR:RXR:GRIP1 complex (BAR:RXR heterodimers; 0.75 μM AGN 29 as agonist, increasing concentrations of AGN 34): progressive dissociation of that complex
- displacement of co-activator (GRIP1) (BAR:RXR heterodimers; heterodimers in which LG 268 was added): fully displaces
- Fold Activation (RFXRop / HRXRop; 0.1 μM LG268 + 0.01 μM AGN 34): 18.59 fold
- Reporter Activity (RFXRop / HRXRop; 0.1 μM LG268 + 0.01 μM AGN 34): 5.24
- Fold Activation (RFXRop / HRXRop; 0.1 μM LG268 + 0.1 μM AGN 34): 1.55 fold
- Reporter Activity (RFXRop / HRXRop; 0.1 μM LG268 + 0.1 μM AGN 34): 0.44
- Fold Activation (RFXRop / HRXRop; 0.1 μM LG268 + 1 μM AGN 34): 0.88 fold
- Reporter Activity (RFXRop / HRXRop; 0.1 μM LG268 + 1 μM AGN 34): 0.25
- Fold Activation (RFXRop / HRXRop; 0.1 μM LG268 + 3 μM AGN 34): 0.92 fold
- Reporter Activity (RFXRop / HRXRop; 0.1 μM LG268 + 3 μM AGN 34): 0.26
- Fold Activation (RFXRop / HRXRop; 0.1 μM LG268 + 10 μM AGN 34): 0.90 fold
- Reporter Activity (RFXRop / HRXRop; 0.1 μM LG268 + 10 μM AGN 34): 0.25
- Fold Activation (RFXRop / HRXRop; 10 μM AGN 34 alone): 0.84 fold and 1.02 fold
- Reporter Activity (RFXRop / HRXRop; 10 μM AGN 34 alone): 0.27 and 0.29
- Fold Activation (RFXRop / HRXRop; 50 μM CDCA + 0.01 μM AGN 34): 9.03 fold
- Reporter Activity (RFXRop / HRXRop; 50 μM CDCA + 0.01 μM AGN 34): 2.92
- Fold Activation (RFXRop / HRXRop; 50 μM CDCA + 0.1 μM AGN 34): 6.32 fold
- Reporter Activity (RFXRop / HRXRop; 50 μM CDCA + 0.1 μM AGN 34): 2.05
- Fold Activation (RFXRop / HRXRop; 50 μM CDCA + 1 μM AGN 34): 3.94 fold and 4.99 fold
- Reporter Activity (RFXRop / HRXRop; 50 μM CDCA + 1 μM AGN 34): 1.28
- Fold Activation (RFXRop / HRXRop; 50 μM CDCA + 3 μM AGN 34): 3.04 fold
- Reporter Activity (RFXRop / HRXRop; 50 μM CDCA + 3 μM AGN 34): 0.98
- Fold Activation (RFXRop / HRXRop; 50 μM CDCA + 10 μM AGN 34): 3.94 fold
- Reporter Activity (RFXRop / HRXRop; 50 μM CDCA + 10 μM AGN 34): 1.28

SMILES: CCCC/C(=C\c1ccc(C(=O)O)cc1)c1ccc2c(c1)C(C)(C)CCC2(C)C [AGN 31, 4-[2-(5,5,8,8-Tetramethyl-5,6,7,8-tetrahydronaphthalen-2-yl)hex-1-enyl]benzoic Acid]
- activation of RXR (Gal-L-RXR): retained some ability to activate RXR
- effect on other RXR heterodimers containing nuclear receptors [1]: no effect

SMILES: Cc1cc2c(cc1/C(=C/c1ccc(C(=O)O)cc1)[Si](C)(C)C)C(C)(C)CCC2(C)C [AGN 29, (Z)-4-[2-(3,5,5,8,8-Pentamethy1-5,6,7,8-tetrahydronaphthalen-2-yl)-2-(trimethylsilyl)vinyl]benzoic Acid]
- activation of RXR (Gal-L-RXR): retained some ability to activate RXR
- effect on other RXR heterodimers containing nuclear receptors [1]: no effect
- formation of BAR:RXR:GRIP1 complex (BAR:RXR heterodimers; 0.75 μM): form a complex
